Experimental data published in PMC5118709, “Identification of Polo-like kinase 1 interaction inhibitors using a novel cell-based assay” (Scientific Reports, 2016).
Where “and” joins values, the source holds several entries; their conditions need not be identical. Equal values may be shown once.

How the values were obtained:
[1] = target: T1, CRAF-BRAF (Homo sapiens, UniProt P04049+P15056); test: control BRET CRAF-BRAF (transient); type: cell-based
T1 construct: expressed in transfected cells; host or cells: HEK293T, transient transfection with PEI
Experimental: We used our cell-based assay to screen a library of 112 983 compounds available in-house at IRIC’s High-Throughput Screening (HTS) platform (see Materials & Methods). Compounds were tested on cells in 384-well plates at concentrations between 10 μM and 25 μM, depending on their concentration in the original stocks solutions. BRET readings were taken 2 hours after treatment. Results obtained show a tight, close to normal distribution centered around zero inhibition relative to DMSO-treated controls (Fig. 1D). Compounds inducing at least 30% BRET inhibition were selected. From these, auto-fluorescent compounds and those that induced more than 90% reduction in RLucII luminescence were removed, leaving 800 primary hits, that we then re-tested using the same assay. In parallel, we tested these compounds in a control BRET assay for an unrelated pair of interacting proteins (BRAF-CRAF[46]) to exclude false-positive compounds that could reduce the BRET signal by interfering with light or by modifying the activity of GFP or Luc.
For the confirmation screen, the same procedure as for the primary screen was followed, except that HEK293T cells were also seeded at 6.25 millions of cells per simple CellStack on day 1 for transient transfections. These cells were transfected on day 3 with Luc-Map (5 μg) and Plk1-GFP (25 μg) pIRESHyg3 plasmids using polyethylenimine (PEI). To identify false-positives compounds, Luc-CRAF (4 μg) and GFP-BRAF (20 μg) plasmids were also transfected with PEI following the published procedure.

[2] = target: PBD of Plk1 (Homo sapiens, UniProt P53350); test: fluorescence polarization assay PBD-Map peptide; type: binding
Experimental: The FP buffer was composed of 10 mM Tris pH 8.0, 50 mM NaCl, 1 mM EDTA, 20% glycerol and 0.1% NP-40. The peptide (final concentration 10 nM) was always added to the wells of non-binding, black, 384-well plates, 1 hour after the addition of the protein with the buffer (+/− treatment, 10% DMSO). […] EC65s were used to perform the competitive assays with the non-labeled peptides and with the inhibitors. FP Inhibition was calculated with the formula: 100 − [((mPsample − mPfree peptide)\(mPDMSO − mPfree peptide)) × 100]. […] (Map peptide), and corresponding non-labeled peptides are identical but without FITC in N-terminal. […] Inhibition curves were fitted with GraphPad (Prism software).

[3] = stability by LC-MS; type: physicochemical
Text: Based on these observations, we speculated that the sulfone undergoes a β-elimination of the benzoate subunit to generate a vinyl sulfone which is responsible for the biological activity of this class of compounds. Using LCMS, we evaluated the stability of Cpd 16 in the buffer used in the FP assay. […] The sulfone β-elimination is a base-catalysed process and the buffer used in the assay is basic enough to allow the reaction to occur. Under neutral or acidic conditions, the compound was very stable and no fragmentation was observed.
Cpd 161, which is 2-((6-methyl-4-(trifluoromethyl)pyridin-2-yl)sulfonyl)ethyl 3-chlorobenzoate (400 μM final concentration), was added to 500 μl of FP buffer (previously described).

[4] = target: GST-PBD367-603 of Plk1 (Homo sapiens, UniProt P53350); test: fluorescence polarization assay PBD-phosphopeptide
[5] = system: HEK293T cells; test: mitotic index assay (phospho-Histone H3) in HEK293T cells; settings: 10 μM
Experimental: For the mitotic index assay, 4000 HeLa cells or 5000 HEK293T cells per well were seeded in a 96-well plate. The day after, cells were incubated for 7 hours with different compounds, and then fixed by adding formaldehyde (4% final concentration) directly to each well. Plates were incubated 20 minutes at 37 °C, and then wells were rinsed three times with TBS-Tween 0.1%. A 1 hour block with PHEM buffer (60 mM Pipes, 25 mM HEPES, 10 mM EGTA, 4 mM MgSO4, pH 6.9) containing 2% BSA and 0.1% triton was performed, before addition of the primary antibody to the wells. The anti-phospho-Histone H3 (Ser10) antibody (EMD Millipore) was diluted 1:300 in PHEM buffer containing 2% BSA and added to the wells for 2 hours at room temperature in the dark. […] Plates were incubated for 1h 30 at room temperature in the dark, and then wells were washed 3 times with TBS-Tween 0.1%. A solution of Mowiol containing DAPI was finally added to the wells. Plates were kept at 4 °C in the dark until imaging using the 20x objective on an Operetta system (Perkin Elmer inc.). The mitotic index, corresponding to the percentage of pHH3 positive cells relative to the total number of DAPI-stained cells detected was calculated by the Operetta using the Harmony 3.5 software. Experiments were done in triplicates.

Sequence of GST-PBD367-603 of Plk1 (P53350 367-603): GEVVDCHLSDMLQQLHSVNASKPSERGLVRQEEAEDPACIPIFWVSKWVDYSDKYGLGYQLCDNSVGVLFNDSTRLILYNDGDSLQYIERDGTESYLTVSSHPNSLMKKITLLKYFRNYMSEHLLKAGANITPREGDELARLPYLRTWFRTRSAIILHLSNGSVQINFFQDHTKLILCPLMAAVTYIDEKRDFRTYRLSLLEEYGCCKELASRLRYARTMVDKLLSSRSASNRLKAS
T1 sequence (P04049 whole entry): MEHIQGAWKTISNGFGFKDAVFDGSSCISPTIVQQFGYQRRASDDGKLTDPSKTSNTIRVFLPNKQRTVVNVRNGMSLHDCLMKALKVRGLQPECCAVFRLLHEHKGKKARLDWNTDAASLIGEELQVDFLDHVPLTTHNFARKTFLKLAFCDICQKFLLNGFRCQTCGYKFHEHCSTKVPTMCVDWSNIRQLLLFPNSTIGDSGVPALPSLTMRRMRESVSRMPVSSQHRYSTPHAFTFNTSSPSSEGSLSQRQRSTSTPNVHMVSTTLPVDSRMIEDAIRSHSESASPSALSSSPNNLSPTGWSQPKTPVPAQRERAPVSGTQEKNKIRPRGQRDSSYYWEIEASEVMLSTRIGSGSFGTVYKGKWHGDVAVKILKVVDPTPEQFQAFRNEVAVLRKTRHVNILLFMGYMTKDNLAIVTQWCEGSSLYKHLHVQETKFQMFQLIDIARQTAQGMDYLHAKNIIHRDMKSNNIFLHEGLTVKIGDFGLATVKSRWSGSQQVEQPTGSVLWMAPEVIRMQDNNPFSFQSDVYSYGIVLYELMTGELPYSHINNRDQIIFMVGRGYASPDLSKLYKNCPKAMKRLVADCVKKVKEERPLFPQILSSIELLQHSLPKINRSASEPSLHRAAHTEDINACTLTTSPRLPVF
T1 sequence (P15056 whole entry): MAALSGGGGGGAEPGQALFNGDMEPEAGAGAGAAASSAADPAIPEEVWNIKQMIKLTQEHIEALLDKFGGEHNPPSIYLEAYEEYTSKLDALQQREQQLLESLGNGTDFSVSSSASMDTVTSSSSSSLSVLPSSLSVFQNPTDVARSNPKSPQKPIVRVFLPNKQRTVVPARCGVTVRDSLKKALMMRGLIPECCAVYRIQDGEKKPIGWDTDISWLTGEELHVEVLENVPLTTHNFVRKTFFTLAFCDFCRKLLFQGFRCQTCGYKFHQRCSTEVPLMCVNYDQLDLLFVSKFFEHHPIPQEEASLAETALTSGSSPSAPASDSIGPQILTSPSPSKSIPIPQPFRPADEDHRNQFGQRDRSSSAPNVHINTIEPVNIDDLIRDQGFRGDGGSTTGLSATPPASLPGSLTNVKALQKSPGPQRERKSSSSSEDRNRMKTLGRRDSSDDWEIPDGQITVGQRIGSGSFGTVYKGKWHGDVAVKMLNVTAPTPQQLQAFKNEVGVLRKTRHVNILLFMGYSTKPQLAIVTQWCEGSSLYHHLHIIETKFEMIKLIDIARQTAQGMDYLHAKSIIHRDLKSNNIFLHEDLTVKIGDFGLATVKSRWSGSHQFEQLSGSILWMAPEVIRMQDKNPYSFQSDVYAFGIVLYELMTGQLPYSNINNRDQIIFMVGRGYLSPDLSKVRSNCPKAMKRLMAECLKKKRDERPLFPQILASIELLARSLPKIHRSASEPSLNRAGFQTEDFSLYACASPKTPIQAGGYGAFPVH
Sequence of PBD of Plk1 (P53350 367-603 limits assumed): as the sequence (P53350 367-603) above

Primary screen CRAF-BRAF (transient) % Inihibition ([1]; 10-25 μM): 52.83%
Primary screen CRAF-BRAF (transient) % Quench RLuc ([1]; 10-25 μM): 88.39%
Confirmation CRAF-BRAF (transient) % Inihibition ([1]; confirmation screen): 0.37%
Confirmation CRAF-BRAF (transient) % Quench RLuc ([1]; confirmation screen): 80.17%
disruption of the PBD-Map interaction in FP [2]: disrupted the PBD-Map interaction
stability in the FP buffer ([3]; approximate pH 8.0, a few minutes (approximately 10 minutes)): fragmentation occurred
stability ([3]; neutral or acidic conditions): very stable
IC50 ([4]; FP - IC50 (μM), Table S3): 18.4 ± 10.2 µM
IC50 ([4]; IC50 in FP, GST-PBD367-603 38 nM, 1 h pre-incubation, FITC-phosphopeptide 10 nM, Fig. 4C): ~16 µM and 16 µM
Structure (SMILES): Cc1cc(C(F)(F)F)cc(S(=O)(=O)CCOC(=O)c2cccc(Cl)c2)n1 [Cpd 16, 2-((6-methyl-4-(trifluoromethyl)pyridin-2-yl)sulfonyl)ethyl 3-chlorobenzoate]
effect on mitotic index, purchased compounds [5]: effective
